{"source": "patent US20250381307A1", "about": "“RETRO-AAV AND USE IN TREATING NEURODEGENERATIVE DISEASES” (priority 2023, published 2025)", "key": {"hM3Dq": {"molecular_target": "hM3Dq (Homo sapiens, UniProt P20309, A239G/Y149C)", "sequence (P20309 whole entry Y149C/A239G, the tested form may be a part)": "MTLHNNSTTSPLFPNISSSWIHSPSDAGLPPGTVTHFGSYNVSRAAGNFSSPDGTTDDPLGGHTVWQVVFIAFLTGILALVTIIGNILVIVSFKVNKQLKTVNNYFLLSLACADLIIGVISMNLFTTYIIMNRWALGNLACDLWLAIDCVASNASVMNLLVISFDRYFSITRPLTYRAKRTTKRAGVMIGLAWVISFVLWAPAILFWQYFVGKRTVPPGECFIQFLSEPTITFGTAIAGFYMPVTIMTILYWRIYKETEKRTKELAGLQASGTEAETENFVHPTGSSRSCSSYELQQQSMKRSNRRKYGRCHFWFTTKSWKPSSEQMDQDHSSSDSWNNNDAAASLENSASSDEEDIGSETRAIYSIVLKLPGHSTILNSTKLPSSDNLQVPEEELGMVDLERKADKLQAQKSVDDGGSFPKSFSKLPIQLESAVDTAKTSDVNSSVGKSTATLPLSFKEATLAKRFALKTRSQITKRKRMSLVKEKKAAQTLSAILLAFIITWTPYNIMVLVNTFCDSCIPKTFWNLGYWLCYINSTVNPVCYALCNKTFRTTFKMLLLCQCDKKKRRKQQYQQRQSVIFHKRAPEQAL", "experiment": "In vivo electrophysiological recording in caudate, hM3Dq macaques, CNO infusion into dorsomedial caudate", "design": "host or cells: AAV8R12-transduced neurons (striatal D1-MSNs, some SNr neurons) of mice and macaques", "description": "Electrophysiological recording was performed through a recording chamber while the monkey was anesthetized. Neural responses were recorded by a 16-channel linear probe (Plexon Inc, Uprobe) driven by a mechanical microdrive (Alpha Omega, FlexMT). Signals were passed through a head stage (Plexon Inc, HST/16V-G20 LN) and then split and filtered between 300 Hz and 5 kHz to identify spiking activity with an amplifier system (Plexon Inc, OmniPlex). Detected spikes were then sorted by commercially available software (Plexon Inc, Offline Sorter) for further analysis. To quantify the effect of CNO/DCZ injection, neural activity was recorded for 60 minutes following CNO/DCZ injection. The response time-course for each channel was obtained by counting the spikes within every 10-minute window and then normalizing to the maximal.\nTo determine the effect of CNO/DCZ injection on the direction of signal change, we performed Pearson correlation between neural responses and time using the ‘corr’ function in Matlab, which generates the correlation coefficient ‘r’ and significant level ‘p’. A neuron was considered to have “Increased” activity when r>0 and p<0.05; and considered to have “Decreased” activity when r<0 and p<0.05. Otherwise, neurons were considered to be “Unchanged” in their neural activities. The responses of all increased neurons were then averaged after being normalized by the maximal response (Crowe et al., 2014; Dai and Wang, 2018; Hirokawa et al., 2019) following CNO/DCZ injection, and then plotted as a function of time to generate the normalized population response."}, "[1]": {"experiment": "Locomotion test in naive macaques without viral injection", "format": "in vivo", "conditions": "naive macaques, n=3, not significant"}}}
{"smiles": "C[N+]1([O-])CCN(C2=Nc3cc(Cl)ccc3Nc3ccccc32)CC1", "note": "[CNO, clozapine N-oxide]", "values": [{"measurement": "caudate cells activated (FIG. 12L)", "setting": "hM3Dq; 34 total cells, saline 18.8%", "result": 67.6, "unit": "%"}, {"measurement": "caudate cells inactivated (FIG. 12L)", "setting": "hM3Dq; 34 total cells, saline 40.6%", "result": 2.9, "unit": "%"}, {"measurement": "caudate cells unchanged (FIG. 12L)", "setting": "hM3Dq; 34 total cells, saline 40.6%", "result": 29.4, "unit": "%"}, {"measurement": "caudate cells activated (FIG. 12C)", "setting": "hM3Dq; monkey CM045, 34 cells", "result": 70.6, "unit": "%"}, {"measurement": "caudate cells inactivated (FIG. 12C)", "setting": "hM3Dq; monkey CM045, 34 cells", "result": 8.8, "unit": "%"}, {"measurement": "caudate cells unchanged (FIG. 12C)", "setting": "hM3Dq; monkey CM045, 34 cells", "result": 20.6, "unit": "%"}, {"measurement": "contraversive and ipsiversive rotation (FIG. 11C)", "setting": "[1]; saline 0.767±0.4296", "result": "0.8384±0.4152"}, {"measurement": "speed of contraversive rotations (FIG. 11G)", "setting": "[1]; saline 39.07±5.889", "result": "39.63±7.092"}, {"measurement": "speed of ipsiversive rotations (FIG. 11H)", "setting": "[1]; saline 41.49±3.96", "result": "42.79±4.705"}, {"measurement": "total distance (FIG. 11F)", "setting": "[1]; saline 53.12±15.3", "result": "59.48±18.65"}, {"measurement": "time spending in the higher portion of the observing cages (FIG. 11D)", "setting": "[1]; saline 55.73±2.64", "result": "60.43±4.542"}, {"measurement": "immobile time (FIG. 11E)", "setting": "[1]; saline 149.9±21.61", "result": "149.8±22.65"}]}
